Source: article PMC5866173 (Journal of natural products, 2017)
“Also recorded” adds a separate entry of the source.

Tested on: chloroquine/mefloquine-resistant Dd2 strain of Plasmodium falciparum
Assay type: cell-based
Conditions: for antiplasmodial activity (in words): Dd2 strain of P. falciparum

With CC1=CCCC(C)(CC(=O)C[C@]2(C)CCc3cc(O)cc(C)c3O2)OC1 (single isomer, unassigned) [Compound 6, 1-[(S or R)-2,6-dimethyl-2,3,4,7-tetrahydrooxepin-2-yl]-3-[(S)-6-hydroxy-2,8-dimethylchroman-2-yl]propan-2-one] the “antiplasmodial activity (in words)” value was “weak antiplasmodial activity”.

In the case of C/C(=C\CC/C(C)=C/C(=O)C[C@]1(C)CCc2cc(O)cc(C)c2O1)CO [Compound 1, (3E,7E)-9-hydroxy-1-[(S)-6-hydroxy-2,8-dimethylchroman-2-yl]-4,8-dimethylnona-3,7-dien-2-one], the “antiplasmodial activity (in words)” value is reported as “inactive”.

CC1=CCCC(C)(CC(=O)C[C@]2(C)CCc3cc(O)cc(C)c3O2)OC1 (single isomer, unassigned) [Compound 7, 1-[(R or S)-2,6-dimethyl-2,3,4,7-tetrahydrooxepin-2-yl]-3-[(S)-6-hydroxy-2,8-dimethylchroman-2-yl]propan-2-one] was tested, and the “antiplasmodial activity (in words)” value was “weak antiplasmodial activity”.

For C/C(=C/CC/C(C)=C/C(=O)C[C@]1(C)CCc2cc(O)cc(C)c2O1)CO [Compound 2, (3E,7Z)-9-hydroxy-1-[(S)-6-hydroxy-2,8-dimethylchroman-2-yl]-4,8-dimethylnona-3,7-dien-2-one], the “antiplasmodial activity (in words)” value was “weak antiplasmodial activity; also recorded: most potent biological activity among these compounds”.

In the case of COc1cc(C)c2c(c1)CC[C@@](C)(CC(=O)/C=C(\C)CC/C=C(\C)CO)O2 [Compound 5, (3E,7E)-9-hydroxy-1-[(S)-6-methoxy-2,8-dimethylchroman-2-yl]-4,8-dimethylnona-3,7-dien-2-one], the “antiplasmodial activity (in words)” value is reported as “weak antiplasmodial activity; also recorded: moderately active”.

“(R)-2-[(3E,7E)-9-hydroxy-4,8-dimethylnona-3,7-dien-1-yl]-2,8-dimethyl-2H-chromen-6-ol [Compound 9]” was tested, and the IC50 (read-out: IC50 against P. falciparum Dd2, chloroquine-resistant Dd2 strain, 72-hour treatment) was greater than 117 µM.
